PMC6222487 (Molecules : A Journal of Synthetic Chemistry and Natural …, 2018)
Read-outs that look alike come from different tables or passages of the source.

Legend:
[1] = target: T1, BuChE (from equine serum) (Equus caballus, UniProt P81908); assay: biochemical; settings: mean ± SEM
T1 construct: purchased Merck & Co; host or cells: equine serum
Description: (§1) Photometric 96-well microplates made from polystyrene (Thermo Scientific, Waltham, […]. USA) were used for measurement purposes.
(§2) AChE and BuChE inhibitory activities were measured by the spectrophotometric method of Ellman, with slight modification. Briefly, all in vitro assays were performed in 0.1 M NaH2PO4/Na2HPO4 buffer, pH 7.4, using a THERMO Enzyme-labeled Instrument. The enzyme solutions were prepared to obtain 2.0 units/mL in 2.0 mL aliquots. The assay medium (1 mL) consisted of phosphate buffer (pH 7.4), 10 μL of the enzyme, 30 μL of 0.01 M DTNB, and 30 μL of substrate (ATC or BTC) at a concentration of 0.01 M. The test and reference compounds were first dissolved in DMSO (5‰) and fetal bovine serum (1‰), and then diluted in 0.1 M NaH2PO4/Na2HPO4 buffer (pH 7.4) to provide a final concentration range. The inhibitors were added to the assay solution containing enzyme, buffer, and DTNB with pre-incubation for 20 min at 37 °C, prior to the addition of the substrate. The activity was determined by measuring the increase in absorbance at 410 nm at 1 min intervals at 37 °C. The data were calculated according to the method described by Ellman et al. Each concentration was assayed in triplicate. Blanks containing all of the components except AChE were included in the analyses.

[2] = target: T2, AChE (from electric eel) (Electrophorus electricus, UniProt O42275); assay: biochemical; format: biochemical; settings: for Selectivity Index = IC50 (BChE)/IC50 (AChE): IC50 BuChE/IC50 AChE; for IC50: mean ± SEM, NA = No potent inhibitory activity
T2 construct: purchased Merck & Co
T2 sequence (O42275 24-633): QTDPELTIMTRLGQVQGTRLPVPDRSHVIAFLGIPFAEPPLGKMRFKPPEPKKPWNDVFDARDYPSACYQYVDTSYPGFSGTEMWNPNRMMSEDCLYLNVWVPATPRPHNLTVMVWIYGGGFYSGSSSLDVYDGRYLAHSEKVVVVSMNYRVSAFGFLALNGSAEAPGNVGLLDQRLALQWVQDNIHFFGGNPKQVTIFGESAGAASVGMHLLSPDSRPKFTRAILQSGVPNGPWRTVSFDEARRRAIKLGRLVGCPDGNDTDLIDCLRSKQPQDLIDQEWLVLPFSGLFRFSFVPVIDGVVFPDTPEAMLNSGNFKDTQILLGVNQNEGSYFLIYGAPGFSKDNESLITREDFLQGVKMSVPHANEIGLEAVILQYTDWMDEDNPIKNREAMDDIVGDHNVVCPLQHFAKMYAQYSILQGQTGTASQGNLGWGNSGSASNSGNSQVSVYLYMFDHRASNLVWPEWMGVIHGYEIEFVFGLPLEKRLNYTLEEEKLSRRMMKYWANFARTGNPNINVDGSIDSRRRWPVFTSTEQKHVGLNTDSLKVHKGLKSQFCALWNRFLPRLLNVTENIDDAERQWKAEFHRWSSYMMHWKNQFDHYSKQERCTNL
Description: as §1, §2

[3] = target: T3, Aβ (1-42) (Homo sapiens, UniProt P05067); assay: biochemical; settings: self-induced aggregation, thioflavin-T; Aβ 20 μM, 37 °C, 24 h; NA = No potent inhibitory activity
T3 construct: Aβ (1-42) peptide (Sigma-Aldrich); purchased Sigma-Aldrich
T3 sequence (P05067 672-713): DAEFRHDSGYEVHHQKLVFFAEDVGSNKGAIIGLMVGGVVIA
Description: A Thioflavin T-based fluorometric assay was performed in order to investigate the self-induced Aβ (1-42) aggregation. Briefly, compounds to be tested were firstly dissolved in DMSO to obtain a 10 mM solution and then diluted in phosphate buffer (pH 7.4) to provide a final concentration range. […] After incubation, thioflavin-T (5 μM in 50 mM glycine-NaOH buffer, pH 8.0) was added into the above 96-well microplate and the samples were diluted to a final volume of 150 μL. […] Each inhibitor was run in triplicate.

[4] = tested on: SH-SY5Y cells; format: cell-based
Description: (§3) To probe whether such a type of target compounds involves cytotoxic effects, we respectively treated HepG2 cells and SH-SY5Y cells with several concentrations of the corresponding compound. Cell viability was determined by a CCK-8 assay.
SH-SY5Y cells (human neuroblastoma cell line from American Type Culture Collection, ATCC, Manassas, VA, USA) were seeded into 96-well plates at a density of 4 × 10^4 cells/mL in Dulbecco’s modified Eagle’s medium (DMEM) supplemented with 10% FBS and 100 U/mL of penicillin/streptomycin (Gino Biomedical Technology Co. LTD., Hangzhou, China), and incubated in a humidified atmosphere containing 5% CO2 at 37 °C. […] After this incubation, 10 μL/well of CCK-8 (5 mg/mL) was added and incubated at 37 °C for 4 h. The optical density (OD) of each well was measured using an Epoch Microplate Spectrophotometer (BioTek Instruments, Inc., Winooski, VT, USA) with a test wavelength of 450, 630 nm.

[5] = tested on: HepG2 cells; format: cell-based
Description: as §3, with “One of the best documented side-effects of the drug discovery and development of AD is cytotoxicity. To” for “To”, “assay. […].” for “assay.”
HepG2 cells (human hepatocellular liver carcinoma cell line from American Type Culture Collection, ATCC) were cultured in Eagle’s minimum essential medium (EMEM) supplemented with 10% heat-inactivated fetal bovine serum (FBS), and 100 U/mL of penicillin/streptomycin (Gino Biomedical Technology Co. LTD., Hangzhou, China). Cultures were seeded into flasks containing supplemented medium and maintained at 37 °C in a humidified atmosphere of 5% CO2. For assays, cells (1.0 × 10^5 cells/well) were seeded in a 96-well plate in complete medium, the medium was removed after 24 h, and cells were exposed to the increasing concentrations of compounds 8q or 8r (0, 25, 50, 125, 200, 300, 400, and 500 μM) in DMEM with no serum for a further 24 h. Cell survival was measured through a CCK-8 assay. All compounds were dissolved in pure DMSO.

T1 sequence (P81908 whole entry): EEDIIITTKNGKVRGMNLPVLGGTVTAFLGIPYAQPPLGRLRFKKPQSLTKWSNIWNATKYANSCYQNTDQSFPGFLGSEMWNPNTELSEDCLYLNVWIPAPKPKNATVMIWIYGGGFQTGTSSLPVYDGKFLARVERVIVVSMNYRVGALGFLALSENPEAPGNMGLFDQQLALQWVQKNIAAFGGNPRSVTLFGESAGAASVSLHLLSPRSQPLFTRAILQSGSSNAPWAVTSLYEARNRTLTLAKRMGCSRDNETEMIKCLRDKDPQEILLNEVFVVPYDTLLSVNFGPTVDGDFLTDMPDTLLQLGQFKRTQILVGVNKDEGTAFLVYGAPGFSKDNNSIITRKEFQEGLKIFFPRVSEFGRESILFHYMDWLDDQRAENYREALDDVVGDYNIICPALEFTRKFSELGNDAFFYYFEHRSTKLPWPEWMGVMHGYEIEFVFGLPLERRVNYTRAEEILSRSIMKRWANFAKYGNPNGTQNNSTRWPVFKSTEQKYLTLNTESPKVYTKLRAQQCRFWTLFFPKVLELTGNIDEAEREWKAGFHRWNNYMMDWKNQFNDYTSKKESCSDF

COc1cccc(C(=O)OCCCOC(=O)c2nc(C)c(C)nc2C)c1OC [Compound 8a, 3-[(2,3-Dimethoxybenzoyl)oxy]propyl 3,5,6-trimethylpyrazine-2-carboxylate]
IC50 [1]: 3630 ± 70 µM | Selectivity Index = IC50 (BChE)/IC50 (AChE) [2]: 2.16 × 10^4 | IC50 [2]: 0.1679 ± 0.00039 µM

COc1cc(OC)cc(C(=O)OCCCOC(=O)c2nc(C)c(C)nc2C)c1 [Compound 8b, 3-[(3,5-Dimethoxybenzoyl)oxy]propyl 3,5,6-trimethylpyrazine-2-carboxylate]
IC50 [1]: 5640 ± 380 µM | Selectivity Index = IC50 (BChE)/IC50 (AChE) [2]: 1.27 × 10^6 | IC50 [2]: 0.00443 ± 0.00035 µM | IC50 [3]: 3.66 ± 0.104 µM

COc1ccc(C(=O)OCCCOC(=O)c2nc(C)c(C)nc2C)c(OC)c1 [Compound 8c, 3-[(2,4-Dimethoxybenzoyl)oxy]propyl 3,5,6-trimethylpyrazine-2-carboxylate]
IC50 [1]: 2700 ± 30 µM | IC50 [2]: 0.3879 ± 0.00045 µM | IC50 [3]: 22.54 ± 0.014 µM

COc1ccc(C(=O)OCCCOC(=O)c2nc(C)c(C)nc2C)cc1OC [Compound 8d, 3-[(3,4-Dimethoxybenzoyl)oxy]propyl 3,5,6-trimethylpyrazine-2-carboxylate]
IC50 [1]: 4290 ± 120 µM | Selectivity Index = IC50 (BChE)/IC50 (AChE) [2]: 1.02 × 10^6 | IC50 [2]: 0.00412 ± 0.00024 µM | IC50 [3]: 51.81 ± 0.047 µM

COc1cccc(OC)c1C(=O)OCCCOC(=O)c1nc(C)c(C)nc1C [Compound 8e, 3-[(2,6-Dimethoxybenzoyl)oxy]propyl 3,5,6-trimethylpyrazine-2-carboxylate]
IC50 [1]: 340 ± 30 µM | Selectivity Index = IC50 (BChE)/IC50 (AChE) [2]: 2.36 × 10^3 | IC50 [2]: 0.1438 ± 0.00025 µM | IC50 [3]: 55.86 ± 0.035 µM

Cc1nc(C)c(C(=O)OCCCOC(=O)c2cccc(Cl)c2)nc1C [Compound 8f, 3-[(3-Chlorobenzoyl)oxy]propyl 3,5,6-trimethylpyrazine-2-carboxylate]
IC50 [1]: 3270 ± 60 µM | Selectivity Index = IC50 (BChE)/IC50 (AChE) [2]: 4.95 × 10^5 | IC50 [2]: 0.00661 ± 0.00013 µM | IC50 [3]: 45.88 ± 0.024 µM

Cc1nc(C)c(C(=O)OCCCOC(=O)c2cccc(Br)c2)nc1C [Compound 8g, 3-[(3-Bromobenzoyl)oxy]propyl 3,5,6-trimethylpyrazine-2-carboxylate]
IC50 [1]: 21100 ± 460 µM | Selectivity Index = IC50 (BChE)/IC50 (AChE) [2]: 6.23

Cc1nc(C)c(C(=O)OCCCOC(=O)c2ccc(Br)cc2)nc1C [Compound 8h, 3-[(4-Bromobenzoyl)oxy]propyl 3,5,6-trimethylpyrazine-2-carboxylate]
IC50 [1]: 2490 ± 290 µM | Selectivity Index = IC50 (BChE)/IC50 (AChE) [2]: 2.62

Cc1nc(C)c(C(=O)OCCCOC(=O)c2ccc(F)cc2)nc1C [Compound 8i, 3-[(4-Fluorobenzoyl)oxy]propyl 3,5,6-trimethylpyrazine-2-carboxylate]
Selectivity Index = IC50 (BChE)/IC50 (AChE) [2]: 1.14 × 10^2 | IC50 [3]: 211.18 ± 0.039 µM

COc1ccc(C(=O)OCCCOC(=O)c2nc(C)c(C)nc2C)cc1F [Compound 8j, 3-[(3-Fluoro-4-methoxybenzoyl)oxy]propyl 3,5,6-trimethylpyrazine-2-carboxylate]
IC50 [1]: 857 ± 2 µM | Selectivity Index = IC50 (BChE)/IC50 (AChE) [2]: 2.97 | IC50 [3]: 7.12 ± 0.012 µM

Cc1nc(C)c(C(=O)OCCCOC(=O)c2cccc(F)c2)nc1C [Compound 8k, 3-[(3-Fluorobenzoyl)oxy]propyl 3,5,6-trimethylpyrazine-2-carboxylate]
IC50 [1]: 5490 ± 150 µM | Selectivity Index = IC50 (BChE)/IC50 (AChE) [2]: 9.49 | IC50 [3]: 5.1 ± 0.04 µM

COc1cc(CC(=O)OCCCOC(=O)c2nc(C)c(C)nc2C)cc(OC)c1OC [Compound 8l, 3-{[(3,4,5-Trimethoxyphenyl)acetyl]oxy}propyl 3,5,6-trimethylpyrazine-2-carboxylate]
IC50 [1]: 3960 ± 260 µM | Selectivity Index = IC50 (BChE)/IC50 (AChE) [2]: 1.31 × 10^4 | IC50 [2]: 0.3034 ± 0.00026 µM | IC50 [3]: 77.45 ± 0.029 µM

Cc1nc(C)c(C(=O)OCCCOC(=O)Cc2ccc(Br)cc2)nc1C [Compound 8m, 3-{[(4-Bromophenyl)acetyl]oxy}propyl 3,5,6-trimethylpyrazine-2-carboxylate]
Selectivity Index = IC50 (BChE)/IC50 (AChE) [2]: 52.17 | IC50 [3]: 200.84 ± 0.016 µM

COc1ccc(CC(=O)OCCCOC(=O)c2nc(C)c(C)nc2C)cc1F [Compound 8n, 3-{[(3-Fluoro-4-methoxyphenyl)acetyl]oxy}propyl 3,5,6-trimethylpyrazine-2-carboxylate]
IC50 [1]: 3060 ± 340 µM | Selectivity Index = IC50 (BChE)/IC50 (AChE) [2]: 20.67

COc1ccc(/C=C/C(=O)OCCCOC(=O)c2nc(C)c(C)nc2C)cc1OC [Compound 8o, 3-{[(2E)-3-(3,4-Dimethoxyphenyl)prop-2-enoyl]oxy}propyl 3,5,6-trimethyl-pyrazine-2-carboxylate]
IC50 [1]: 3970 ± 100 µM | Selectivity Index = IC50 (BChE)/IC50 (AChE) [2]: 1.23 × 10^6 | IC50 [2]: 0.00324 ± 0.0001 µM | IC50 [3]: 45.29 ± 0.033 µM

COc1cc(/C=C/C(=O)OCCCOC(=O)c2nc(C)c(C)nc2C)cc(OC)c1OC [Compound 8p, 3-{[(2E)-3-(3,4,5-Trimethoxyphenyl)prop-2-enoyl]oxy}propyl 3,5,6-tri-methylpyrazine-2-carboxylate]
IC50 [1]: 4020 ± 30 µM | Selectivity Index = IC50 (BChE)/IC50 (AChE) [2]: 4.30 × 10^4 | IC50 [2]: 0.09351 ± 0.0002 µM | IC50 [3]: 71.28 ± 0.044 µM

Nc1c2c(nc3ccccc13)CCCC2 [Tacrine, reference compound]
Cell viability ([4]; 25 µM): 87.89 ± 0.85 ^ns percentage of control | Cell viability ([4]; 50 µM): 88.17 ± 1.55 ^ns percentage of control | Cell viability ([4]; 125 µM): 75.42 ± 0.78 percentage of control | Cell viability ([4]; 200 µM): 48.75 ± 0.43 percentage of control | Cell viability ([4]; 300 µM): 43.39 ± 2.69 percentage of control | Cell viability ([4]; 400 µM): 34.69 ± 2.86 percentage of control | Cell viability ([5]; 25 µM): 99.78 ± 1.07 ^ns percentage of control | Cell viability ([5]; 50 µM): 95.02 ± 2.30 ^ns percentage of control | Cell viability ([5]; 125 µM): 83.72 ± 0.73 percentage of control | Cell viability ([5]; 200 µM): 81.80 ± 1.86 percentage of control | Cell viability ([5]; 300 µM): 74.32 ± 3.93 percentage of control | Cell viability ([5]; 400 µM): 23.61 ± 0.05 percentage of control | Cell viability ([5]; 500 µM): 19.92 ± 0.05 percentage of control
